Test results from US12428422B2, “Purine derivatives as SIK-3 inhibitors” (RHIZEN PHARMACEUTICALS AG, priority 2020, dated 2025).

How the values were obtained:
Type in all cases: cell-based
U937 cell lines = experiment: MTT cell growth inhibition, single agent or combination, U937; settings: combined with azacytidine or ventoclax, 72 hrs
Procedure: Assay 4: Compound M1 as a Single Agent or in Combination with Azacytidine, or Venetoclax was Determined in the AML Lines: THP-1, U937, and MV-4-11.
Day 0 • The cells were pelleted and counted. • Cells were plated at desired density (100 μl/well) in complete media in a 96-well plate in triplicates. A column for Day “0” reading was also seeded (18-20 hrs after initial plating and before addition of the inhibitors) • Plates were incubated at 37° C. and 5% CO2. Day 1 • 10 μl of MTT (5 mg/ml) were added to the column designated for Day “0”. It was mixed well and incubated at 37° C. and 5% CO2 for 3.5 h. Cells were pelleted down at 4000 rpm for 10 minutes. • Media was aspirated out and 150 μl of DMSO were added to the cells and mixed by pipetting to dissolve the crystals • Plate was read at A560 nm and A640 nm. […] Crystals were dissolved by repeated pipetting. • The plate was read at A560 nm and A640 nm. […]
Reference absorbance values were subtracted from test absorbance values. Day 0 values were subtracted from final day absorbance values for determining cell growth. Percent cell growth inhibitions were calculated.

HuT-78 cell lines = experiment: MTT cell growth inhibition, combination with romidepsin, HuT-78; settings: combined with romedepsin, 72 hrs
Procedure: Assay 5: Combination of Compound M1 with Standard Agents in HuT-78 Cell Lines
Day 0 • The HuT-78 cells were pelleted and counted. • Cells were plated at desired density (100 μl/well) in complete media in a 96-well plate in triplicates. A column for Day “0” reading was also seeded. (18-20 hrs after initial plating and before addition of the inhibitors) • Plates were incubated at 37° C. and 5% CO2. Day 1 • 10 μl of MTT (5 mg/ml) were added to the column designated for Day “0”. It was mixed well and incubated at 37° C. and 5% CO2 for 3.5 hours. Cells were pelleted down at 4000 rpm for 10 minutes. • Media was aspirated out and 150 μl of DMSO were added to the cells and mixed by pipetting to dissolve the crystals • The plate was read at A560 nm and A640 nm. Day 2 • A series of dilutions of the inhibitors were initially made in 100% DMSO and further diluted in growth medium. • Cells were treated with either single agent of DMSO, compound M1, romidepsin, or a combination of compound M1 and romidepsin (HuT-78). […] Crystals were dissolved by repeated pipetting. • The plate was read at A560 nm and A640 nm. […]
(§1) Reference absorbance values were subtracted from test absorbance values. Day 0 values were subtracted from final day absorbance values for determining cell growth. % Cell growth inhibitions were calculated.

MDA-MB-231 cell lines = experiment: MTT cell growth inhibition, combination with taxol, MDA-MB-231; settings: combined with taxol, 72 hrs
Procedure: (§2) Assay 6: Combination of Compound M1 with Standard Agents in Different Cell Lines
(§3) Day 0 • The cells were pelleted and counted. • Cells were plated at desired density (100 μl/well) in complete media in a 96-well plate in triplicates. A column for Day “0” reading was also seeded. (18-20 hrs after initial plating and before addition of the inhibitors) • Plates were incubated at 37° C. and 5% CO2. Day 1 • 10 μl of MTT (5 mg/ml) were added to the column designated for Day “0”. It was mixed well and incubated at 37° C. and 5% CO2 for 3.5 h. Cells were pelleted down at 4000 rpm for 10 minutes. • Media was aspirated out and 150 μl of DMSO were added to the cells and mixed by pipetting to dissolve the crystals • The plate was read at A560 nm and A640 nm. Day 2 • A series of dilutions of the inhibitors were initially made in 100% DMSO and further diluted in growth medium. • Cells were treated with either single agent of DMSO, compound M1, taxol, and a combination of compound M1 and taxol (MDA-MB-231, MCF-7, ZR.75.1 and SK-OV-3). […] Crystals were dissolved by repeated pipetting. • The plate was read at A560 nm and A640 nm. […]
as §1

MCF-7 cell lines = experiment: MTT cell growth inhibition, combination with taxol, MCF-7; settings: combined with taxol, 72 hrs
Procedure: as §2, §3, §1

ZR.75.1 cell lines = experiment: MTT cell growth inhibition, combination with taxol, ZR.75.1; settings: combined with taxol, 72 hrs
Procedure: as §2, §3, §1

SK-OV-3 cell lines = experiment: MTT cell growth inhibition, combination with taxol, SK-OV-3; settings: combined with taxol, 72 hrs
Procedure: as §2, §3, §1

Q: For `CC[C@H](Nc1ncnc2[nH]c(O)nc12)c1oc2ccccc2c(=O)c1-c1cccc(F)c1` [Compound M1, (S)-3-(3-fluorophenyl)-2-(1-((8-hydroxy-9H-purin-6-yl)amino)propyl)-4H-chromen-4-one], which “cell growth inhibition in combination” value (U937 cell lines) is on record?
A: synergistic activity

Q: And the “cell growth inhibition in combination” value (HuT-78 cell lines)?
A: synergistic results

Q: What about the “cell growth inhibition in combination” value (MDA-MB-231 cell lines) of the same compound?
A: synergistic results

Q: What about the “cell growth inhibition in combination” value (MCF-7 cell lines) of the same compound?
A: synergistic results

Q: And the “cell growth inhibition in combination” value (ZR.75.1 cell lines)?
A: synergistic results

Q: And the “cell growth inhibition in combination” value (SK-OV-3 cell lines)?
A: synergistic results
